Source: US20030194378A1, “Novel aerosol formulation containing a polar fluorinated molecule” (priority 2000, published 2003)
Structures can show the parent of a compound that is named as a salt. Where two headings read alike, the source gives them in different places.

What was measured:
[1] = Solubility of selected excipients in 4HPFOH; settings: for Concentration % w/w (at which solubility in 4HPFOH was assessed): excipient in 4HPFOH; for Solubility or miscibility in 4HPFOH: excipient in 4HPFOH at the concentration of the same line, sonicated, heated, cooled
Experimental: The second test carried out was to evaluate the solubility (or miscibility in the case of liquid samples) of some excipients in 4HPFOH.
The excipients were weighed in glass vials with a screw-on plastic cap. 4HPFOH was added at the required concentration, and the vial sealed with Teflon tape and the screw-on cap. The sample was sonicated and heated to quicken the solubilisation of the excipient. The vial was then allowed to cool down.

[2] = Miscibility or solubility of fluorinated molecules in propellants; settings: for Concentration (C, in brackets) at which the miscibility or solubility test was done, HFA-134a / Concentration (C, in brackets) at which the miscibility or solubility test was done, HFA-227: solutions below this are monophasic, not an upper limit; for Miscibility or solubility, HFA-134a: in propellant HFA-134a, at the concentration in brackets; for Miscibility or solubility, HFA-227: in propellant HFA-227, at the concentration in brackets
[3] = Solubility of drug compounds in 4HPFOH (optical, UV-Vis); format: physicochemical
Experimental: Although most drug compounds are insoluble in the fluorinated systems, in some instances it is possible to solubilise the drug.
Drug suspensions were prepared in sealed glass vials by weight. The suspensions were then allowed to rest over a couple of day to reach equilibrium. They were firstly assessed optically, and in the case of a possible solubility by UV-vis spectroscopy. The solutions were then filtered with 0.2 μm PTFE filters and studied by UV-Vis spectroscopy between 280 nm and 350 nm. A range of suspensions were prepared, to be able to reach saturation levels. Calibration curves were then drawn by plotting the absorbance as a function of concentration. The inflexion point at which the slope of the calibration plot changed was taken as the solubility limit. The experiment was carried out at least 3 times for each drug.

Concentration (C, in brackets) at which the miscibility or solubility test was done, HFA-134a [2] | Concentration (C, in brackets) at which the miscibility or solubility test was done, HFA-227 [2] | Miscibility or solubility, HFA-134a [2] | Miscibility or solubility, HFA-227 [2] | SMILES | further results
– | – | – | – | CCCCCCCCC[N+](C)(C)C.[Br-] [Nonyltrimethyl Ammonium Bromide] | Concentration % w/w (at which solubility in 4HPFOH was assessed) [1]: 0.96 % w/w; Solubility or miscibility in 4HPFOH [1]: Yes
– | – | – | – | C[C@H](CCC(=O)O)[C@H]1CC[C@H]2[C@@H]3CC[C@@H]4C[C@H](O)CC[C@]4(C)[C@H]3C[C@H](O)[C@]12C [Deoxycholic acid] | Concentration % w/w (at which solubility in 4HPFOH was assessed) [1]: 0.90 % w/w; Solubility or miscibility in 4HPFOH [1]: Yes
(C <4.93% w/w) | < 4.43 % w/w | Yes | Yes | CCOC(=O)C(F)(F)C(F)(F)C(F)(F)C(F)(F)C(F)(F)C(F)(F)C(F)(F)C(F)(F)C(F)(F)C(F)F [Ethyl 11H-Perfluoroundecanoate] | –
– | – | – | – | CCCC1O[C@@H]2C[C@H]3[C@@H]4CCC5=CC(=O)C=C[C@]5(C)[C@H]4[C@@H](O)C[C@]3(C)[C@]2(C(=O)CO)O1 (some centres unmarked) [Budesonide] | Solubility in 4HPFOH (in words) [3]: soluble; Solubility limit in 4HPFOH [3]: 0.219-0.246 % w/w
(C <4.55% w/w) | < 4.15 % w/w | Yes | Yes | OCC(F)(F)C(F)(F)C(F)(F)C(F)(F)C(F)(F)C(F)(F)C(F)(F)C(F)(F)F [1H,1H, Perfluorononan-1-ol] | –
– | – | – | – | CCCCCCCCCCCC[N+](C)(C)C.[Br-] [Dodecyltrimethyl Ammonium Bromide] | Concentration % w/w (at which solubility in 4HPFOH was assessed) [1]: 1.00 % w/w; Solubility or miscibility in 4HPFOH [1]: Yes
– | – | – | – | Cc1ccc(CCOCCNS(=O)(=O)CCCNCCc2ccc(O)c3nc(O)sc23)cc1 [3-[2-(4-hydroxy-2-oxo-3H-1,3-benzothiazol-7-yl)ethylamino]-N-[2-[2-(4-methylphenyl)ethoxy)ethyl]propansulphonamide] | Solubility in 4HPFOH [3]: less than 0.1 ppm(w/w); Solubility in 4HPFOH (in words) [3]: insoluble
(C <43.49% w/w) | (C <35.36% w/w) | Yes | Yes | FC(OC(F)(F)C(F)(OC(F)(F)C(F)(OC(F)(F)C(F)(OC(F)(F)C(F)(F)C(F)(F)F)C(F)(F)F)C(F)(F)F)C(F)(F)F)C(F)(F)F (centres unmarked) [2H Perfluoro-5,8,11-trimethyl-3,6,9,12-tetrafluoropropylether] | –
– | – | – | – | CC(C)(C)NCC(O)c1cc(O)cc(O)c1 (centres unmarked) [Terbutaline Sulphate] | Solubility in 4HPFOH [3]: less than 0.1 ppm(w/w); Solubility in 4HPFOH (in words) [3]: insoluble
(C <10.37% w/w) | < 8.90 % w/w | Yes | Yes | COC(=O)C(F)(OC(F)(F)C(F)(OC(F)(F)C(F)(OC(F)(F)C(F)(OC(F)(F)C(F)(F)C(F)(F)F)C(F)(F)F)C(F)(F)F)C(F)(F)F)C(F)(F)F (centres unmarked) [Methyl perfluoro 2,5,9,11-Tetramethyl 3,6,9,12 Tetraoxapentadecanoate] | –
(C <4.84% w/w) | < 3.71 % w/w | Yes | Yes | OCC(O)CC(F)(F)C(F)(F)C(F)(F)C(F)(F)C(F)(F)C(F)(F)F (centres unmarked) [1H,1H,2H,3H,3H Perfluoro-1,2-nonandiol] | –
– | – | – | – | CCCCCCCCO[C@@H]1O[C@H](CO)[C@@H](O)[C@H](O)[C@H]1O [N Octyl beta D Glucopyranoside] | Concentration % w/w (at which solubility in 4HPFOH was assessed) [1]: 0.11 % w/w; Solubility or miscibility in 4HPFOH [1]: Yes
– | – | – | – | COc1ccc(CC(C)NCC(O)c2ccc(O)c(NC=O)c2)cc1 (centres unmarked) [Formoterol Fumarate Dihydrate] | Solubility in 4HPFOH (in words) ([3]; in 4HPFOH, equilibrated a couple of days): insoluble
– | – | – | – | CCCCC(CC)COC(=O)CC(C(=O)OCC(CC)CCCC)S(=O)(=O)[O-].[Na+] (centres unmarked) [Dioctyl-sulfosuccinate sodium salt] | Concentration % w/w (at which solubility in 4HPFOH was assessed) [1]: 0.096 % w/w; Solubility or miscibility in 4HPFOH [1]: Yes

SMILES | Concentration (C, in brackets) at which the miscibility or solubility test was done, HFA-134a [2] | Concentration (C, in brackets) at which the miscibility or solubility test was done, HFA-227 [2] | Miscibility or solubility, HFA-134a [2] | Miscibility or solubility, HFA-227 [2] | further results
OCCC(F)(F)C(F)(F)C(F)(F)C(F)(F)C(F)(F)C(F)(F)F [1H,1H,2H,2H Perfluorooctan-1-ol] | (C <7.30% w/w) | < 5.17 % w/w | Yes | Yes | –
COC(=O)C(F)(F)C(F)(F)C(F)(F)C(F)(F)C(F)(F)C(F)(F)C(F)(F)C(F)(F)C(F)(F)F [Methyl Perfluorodecanoate] | (C <42.63% w/w) | (C <39.40% w/w) | Yes | Yes | –
CCOC(=O)C(F)(F)C(F)(F)C(F)(F)C(F)(F)C(F)(F)C(F)(F)C(F)(F)C(F)(F)C(F)(F)C(F)(F)C(F)(F)F [Ethyl Perfluoro n-Dodecanoate] | (C <9.24% w/w) | (C <41.15% w/w) | Yes | Yes | –
O=C(OC(=O)C(F)(F)C(F)(F)C(F)(F)C(F)(F)C(F)(F)C(F)(F)F)C(F)(F)C(F)(F)C(F)(F)C(F)(F)C(F)(F)C(F)(F)F [Perfluoroheptanoic anhydride] | (C <9.89% w/w) | < 9.13 % w/w | Yes | Yes | –
